According to ChEMBL document CHEMBL1201862, “PubChem BioAssay data set” (2004):
Active and inactive are the calls of the source. Cut-off read from the data, not from the text of the source, for most assays here: actives have a measured EC50 and inactives only a lower limit.

What was measured:
[1] = target: Luciferin 4-monooxygenase (Photinus pyralis, UniProt P08659); test: inhibition of purified Photinus pyralis luciferase – biochemical, luminescence, dose response (AID 1891)
[2] = Luminescence Cell-Based Dose Confirmation HTS to Identify Inhibitors of Platelet Dense Granule Release. [Related pubchem assays: 1663 (Primary HTS), 1678 (Summary of Project)]; assay type: functional
[3] = target: T1, Heat shock factor protein 1 (Mus musculus, UniProt P38532); test: decrease of HSF1-responsive luciferase luminescence – cell-based, NIH3T3, dose retest, confirmation (AID 2382); assay type: functional;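 note: NIH3T3 fibroblasts with HSF1-driven luciferase reporter stressed by proteasome inhibitor MG132; luminescence from HSF1-driven luciferase expression after 8 hours of MG132 stress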
T1 sequence (P38532 whole entry): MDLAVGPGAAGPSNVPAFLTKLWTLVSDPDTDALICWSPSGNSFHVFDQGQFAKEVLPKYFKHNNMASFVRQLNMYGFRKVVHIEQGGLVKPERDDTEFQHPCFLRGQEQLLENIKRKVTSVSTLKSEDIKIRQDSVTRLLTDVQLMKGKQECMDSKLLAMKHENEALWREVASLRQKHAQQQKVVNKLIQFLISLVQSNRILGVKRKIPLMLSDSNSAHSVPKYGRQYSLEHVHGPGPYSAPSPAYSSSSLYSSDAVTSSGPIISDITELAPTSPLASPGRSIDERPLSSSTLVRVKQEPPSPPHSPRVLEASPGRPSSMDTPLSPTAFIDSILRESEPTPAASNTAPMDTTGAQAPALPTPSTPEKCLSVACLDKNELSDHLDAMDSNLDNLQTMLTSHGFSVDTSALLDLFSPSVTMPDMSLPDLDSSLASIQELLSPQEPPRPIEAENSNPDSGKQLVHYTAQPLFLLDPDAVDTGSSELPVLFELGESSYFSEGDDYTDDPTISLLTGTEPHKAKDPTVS

[4] = viability of PTEN-deleted HCT116 cells – cell-based, HCT116 PTEN knockout, dose response (AID 1047); assay type: functional;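 note: HCT116 colon tumor cells with PTEN knocked out; cells exposed to compound for 60 hours before readout; potency for loss of cell viability measured by luminescence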
[5] = target: T2, Replicative DNA helicase DnaB (Mycobacterium tuberculosis, UniProt P9WMR3); test: DnaB intein splicing inhibitors, dose response, biochemical, cell-free fluorescence (AID 449749); assay type: functional
T2 sequence (P9WMR3 whole entry): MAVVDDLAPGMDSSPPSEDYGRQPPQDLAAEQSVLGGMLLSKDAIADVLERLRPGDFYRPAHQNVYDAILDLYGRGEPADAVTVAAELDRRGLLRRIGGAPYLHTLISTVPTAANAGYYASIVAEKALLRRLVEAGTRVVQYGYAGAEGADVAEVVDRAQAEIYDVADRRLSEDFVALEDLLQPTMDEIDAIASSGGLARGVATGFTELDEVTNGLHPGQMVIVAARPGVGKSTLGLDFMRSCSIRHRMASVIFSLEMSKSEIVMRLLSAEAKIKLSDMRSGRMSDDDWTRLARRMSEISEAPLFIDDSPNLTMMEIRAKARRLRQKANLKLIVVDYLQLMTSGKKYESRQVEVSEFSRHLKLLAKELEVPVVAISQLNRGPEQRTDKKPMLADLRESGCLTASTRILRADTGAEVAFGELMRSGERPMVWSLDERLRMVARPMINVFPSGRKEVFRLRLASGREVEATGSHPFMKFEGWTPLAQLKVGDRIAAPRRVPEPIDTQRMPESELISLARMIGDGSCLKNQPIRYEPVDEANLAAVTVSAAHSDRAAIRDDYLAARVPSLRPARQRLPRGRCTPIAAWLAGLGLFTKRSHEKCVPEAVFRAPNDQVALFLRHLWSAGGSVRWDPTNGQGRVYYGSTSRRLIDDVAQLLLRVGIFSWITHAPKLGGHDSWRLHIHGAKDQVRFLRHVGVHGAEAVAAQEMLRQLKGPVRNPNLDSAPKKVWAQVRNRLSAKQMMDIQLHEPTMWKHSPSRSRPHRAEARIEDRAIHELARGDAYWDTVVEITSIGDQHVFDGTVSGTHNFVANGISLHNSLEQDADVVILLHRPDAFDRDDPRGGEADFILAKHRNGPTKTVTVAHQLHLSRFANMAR

[6] = viability of HCT116 lacking mutant beta-catenin – cell-based, human colon tumor, dose response (AID 1045); assay type: functional;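 note: HCT116 colon tumor cells with beta catenin knocked out; cells exposed to compound for 60 hours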
[7] = target: T3, Protein RecA (Mycobacterium tuberculosis, UniProt P9WHJ3); test: Fluorescence Cell-Free Homogeneous Dose Retest to Identify Inhibitors of RecA-Intein Splicing Activity. [Related pubchem assays (depositor defined):AID2097, AID2223, AID489010, AID492950]; assay type: functional
T3 sequence (P9WHJ3 whole entry): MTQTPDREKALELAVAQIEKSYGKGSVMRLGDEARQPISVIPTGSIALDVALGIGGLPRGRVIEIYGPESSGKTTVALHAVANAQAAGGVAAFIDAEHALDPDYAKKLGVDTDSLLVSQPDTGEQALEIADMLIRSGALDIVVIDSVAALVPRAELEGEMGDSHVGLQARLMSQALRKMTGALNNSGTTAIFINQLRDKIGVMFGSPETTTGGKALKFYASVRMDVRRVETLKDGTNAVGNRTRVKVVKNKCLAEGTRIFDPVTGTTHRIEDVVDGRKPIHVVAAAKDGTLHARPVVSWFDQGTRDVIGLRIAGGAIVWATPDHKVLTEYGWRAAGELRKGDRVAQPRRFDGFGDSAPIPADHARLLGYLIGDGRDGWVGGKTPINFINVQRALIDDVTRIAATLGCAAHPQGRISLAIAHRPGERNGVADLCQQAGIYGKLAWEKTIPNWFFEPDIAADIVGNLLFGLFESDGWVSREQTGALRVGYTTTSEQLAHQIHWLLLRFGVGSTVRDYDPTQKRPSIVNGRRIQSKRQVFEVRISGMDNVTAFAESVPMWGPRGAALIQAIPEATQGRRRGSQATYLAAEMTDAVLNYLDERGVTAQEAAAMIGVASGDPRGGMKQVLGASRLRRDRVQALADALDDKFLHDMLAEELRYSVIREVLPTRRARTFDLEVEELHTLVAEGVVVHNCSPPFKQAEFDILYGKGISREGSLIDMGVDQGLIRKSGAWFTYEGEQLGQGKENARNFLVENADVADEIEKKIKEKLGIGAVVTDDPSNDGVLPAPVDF

[8] = test system: H4; test: Luminescence Cell-Based Dose Response HTS to Identify Activators of 5'UTR Stem-Loop Driven Prion Protein mRNA Translation in H4 Neuroglioblastoma Cells. [Related pubchem assays: 1829 (Project Summary), 1814 (Primary HTS)]; assay type: functional; conditions: Homo sapiens
[9] = Luminescence Cell-Based Dose Response HTS to Identify Activators of Luciferase Translation or Activity in H4 […] Cells. [Related pubchem assays: 1829 (Project Summary), 1814 (Primary HTS)]; assay type: functional
[10] = Luminescence Cell-Based Dose Confirmation HTS to Identify Activators of 5'UTR Stem-Loop Driven Alpha-Synuclein mRNA Translation in H4 Neuroglioblastoma Cells. [Related pubchem assays: 1829 (Project Summary), 1814 (Primary HTS)]; assay type: functional
[11] = target: T4, Corticotropin-releasing factor receptor 2/Corticotropin-releasing factor-binding protein (Homo sapiens, UniProt P24387+Q13324); test: activators of CRF receptor 2 with binding protein – uHTS hits, confirmation (AID 602473); assay type: functional; conditions: read-out: EC50_Mean
T4 sequence (Q13324 whole entry): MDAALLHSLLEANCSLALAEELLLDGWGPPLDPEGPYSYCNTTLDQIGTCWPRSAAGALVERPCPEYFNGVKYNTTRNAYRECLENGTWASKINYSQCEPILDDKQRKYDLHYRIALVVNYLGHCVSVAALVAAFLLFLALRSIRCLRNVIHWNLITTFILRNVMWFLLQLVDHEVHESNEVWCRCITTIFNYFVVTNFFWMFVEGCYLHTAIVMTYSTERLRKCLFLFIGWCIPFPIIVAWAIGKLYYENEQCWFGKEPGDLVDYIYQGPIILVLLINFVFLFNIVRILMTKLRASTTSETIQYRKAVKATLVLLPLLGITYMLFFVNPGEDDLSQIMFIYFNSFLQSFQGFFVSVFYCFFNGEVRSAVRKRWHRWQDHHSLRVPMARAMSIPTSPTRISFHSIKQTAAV
T4 sequence (P24387 whole entry): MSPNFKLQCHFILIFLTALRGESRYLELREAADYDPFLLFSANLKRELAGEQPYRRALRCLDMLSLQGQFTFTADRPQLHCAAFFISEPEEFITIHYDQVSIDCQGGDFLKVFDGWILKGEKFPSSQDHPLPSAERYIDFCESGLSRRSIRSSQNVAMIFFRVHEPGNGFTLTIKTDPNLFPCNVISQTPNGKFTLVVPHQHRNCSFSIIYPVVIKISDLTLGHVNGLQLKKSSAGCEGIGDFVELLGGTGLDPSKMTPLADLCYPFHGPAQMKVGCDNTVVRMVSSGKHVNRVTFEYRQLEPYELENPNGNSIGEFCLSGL

[12] = test system: Streptococcus; test: GAS UMAA2166 growth inhibition – luminescence, BacTiterGlo, counter-screen for streptokinase expression inhibitor project, dose response (AID 1915); assay type: functional, organism-based;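 note: potency for reduction of bacterial viability or growth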
[13] = test system: Streptococcus sp. 'group A'; test: Streptococcus pyogenes SK(-)GAS viability under kanamycin – luminescence, BacTiterGlo, confirmation, counter-screen for streptokinase expression inhibitor project, dose response (AID 1900); assay type: functional, organism-based
[14] = target: T4, Corticotropin-releasing factor receptor 2/Corticotropin-releasing factor-binding protein; test: Dose Response confirmation of uHTS hits for small molecule antagonists of the CRF-binding protein and CRF-R2 receptor complex.; assay type: functional; conditions: read-out: IC50_Mean

Sequence of Luciferin 4-monooxygenase (P08659 whole entry): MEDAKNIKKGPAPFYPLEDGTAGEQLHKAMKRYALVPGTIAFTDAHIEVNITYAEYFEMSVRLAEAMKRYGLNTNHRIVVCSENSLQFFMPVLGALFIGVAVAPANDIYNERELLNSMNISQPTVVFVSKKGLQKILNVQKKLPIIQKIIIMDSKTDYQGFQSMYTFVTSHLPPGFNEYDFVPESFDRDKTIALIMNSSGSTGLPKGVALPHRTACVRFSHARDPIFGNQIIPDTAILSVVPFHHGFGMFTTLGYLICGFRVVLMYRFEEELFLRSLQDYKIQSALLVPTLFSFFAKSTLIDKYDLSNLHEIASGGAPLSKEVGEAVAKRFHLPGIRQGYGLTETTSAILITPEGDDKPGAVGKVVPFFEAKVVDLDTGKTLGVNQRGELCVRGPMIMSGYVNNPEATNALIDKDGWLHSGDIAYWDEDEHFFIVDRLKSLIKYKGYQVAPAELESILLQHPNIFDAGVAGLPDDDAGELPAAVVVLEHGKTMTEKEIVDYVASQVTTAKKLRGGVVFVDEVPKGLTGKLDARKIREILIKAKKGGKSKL

Compound	EC50 [3]	AC50 [5]	EC50 [7]	further results
CCOC(=O)Cc1ccc2sc(-c3ccccc3)nc2c1				EC50 [1]: 1.54 µM (active); EC50 [2]: 2.68 µM (active)
COc1cccc(/C=N/NC(=O)c2cnccn2)c1	> 195 µM (not active)			
CC1=C(C)/C(=N/OC(=O)c2cccc([N+](=O)[O-])c2)C=CC1=O		> 380 µM (inactive)	0.418 µM (active)	EC50 [4]: 9.44 µM (active); EC50 [6]: 9.24 µM (active)
S=C(Nc1ccc(Nc2ccccc2)cc1)NN1CCOCC1	> 195 µM (not active)			EC50 [8]: > 120 µM (not active); EC50 [9]: 56.1 µM (active); EC50 [10]: > 120 µM (not active)
O=C1CC(NC(=O)C(F)(F)F)=NN1c1ccccc1		6.86 µM (active)	5.51 µM (active)	
Cc1ccc(SCc2n[nH]c3c2C(c2ccco2)C(C#N)=C(N)O3)cc1 (stereo not drawn)		< 0.018 µM (active)	6.19 µM (active)	
COc1cc(C=C(c2nc3ccccc3s2)c2nc3ccccc3s2)ccc1O		> 380 µM (inactive)	5.08 µM (active)	
O=S(=O)(c1ccccc1)N1CN2CCN(C2)C1	> 195 µM (not active)			
N#C/C(=C(/O)Cc1cccc2ccccc12)c1nc2ccccc2s1				EC50 [11]: 3.14 µM (active); EC50 [12]: 3.17 µM (active); EC50 [13]: 2.91 µM (active); IC50 [14]: 2.49 µM (active)
CCCN(Cc1ccccc1)C(=S)NC(=O)c1ccccc1[N+](=O)[O-]	> 195 µM (not active)			
O=S(=O)(c1ccc(F)cc1)N(Cc1ccco1)Cc1cc2ccccc2nc1O				EC50 [1]: > 112 µM (not active); EC50 [2]: > 112 µM (not active)
O=Cc1c(-c2ccc(Cl)cc2)oc2ccc(O)cc12	18 µM (active)			
CC(=O)N1C(=O)C2(C(C#N)=C(N)Oc3c2c(C)nn3-c2ccccc2)c2ccccc21 (stereo not drawn)		4.34 µM (active)	2.28 µM (active)	
